Experiment: solvent given as SMILES

## N#Cc1c(N2CCCCC2)cc(-c2ccc(Br)cc2)c2c1CCc1ccccc1-2
In C1CCOC1
  emission maximum: 468 nm

## CCCCC(CC)CN1C(=O)C2=C(c3ccc(-c4ccc(C5=C6C(C)=CC(C)=[N+]6[B-](F)(F)n6c(C)cc(C)c65)cc4)s3)N(CC(CC)CCCC)C(=O)C2=C1c1cccs1 (centres undefined)
In Cc1ccccc1
  emission maximum: 623 nm

## CCc1nc2c(nc1CC)C(c1ccccc1)=[N+]1C2=Nc2c3nc(CC)c(CC)nc3c(-c3ccccc3)n2[B-]1(F)F
In C1CCOC1
  emission maximum: 721 nm

## c1ccc2c(c1)-c1c(ccc3ccccc13)C21c2cc(-c3ccc4ccc5cccc6ccc3c4c56)ccc2-c2ccc(-c3ccc4ccc5cccc6ccc3c4c56)cc21
In ClC(Cl)Cl
  emission maximum: 422 nm

## c1ccc(N(c2ccccc2)c2c3ccccc3cc3ccccc23)cc1
In Cc1ccccc1
  emission maximum: 489 nm

## Cc1ccc2nc3c4c(c5ccccc5c3nc2c1)OC(=O)CC4c1ccc(C(F)(F)F)cc1 (centres undefined)
In ClC(Cl)Cl
  emission maximum: 430 nm

## COC(=O)[C@@H]1C(=O)Oc2ccccc2[C@H]1c1c[nH]c2ccccc12
In CS(C)=O
  emission maximum: 376 nm

## CC(C)(C)OC(=O)/C=C/C1=CC2=C(c3ccccc3)c3cccn3[B-](F)(F)[N+]2=C1
In ClCCl
  emission maximum: 575 nm

## c1ccc(-c2nc(-c3ccccc3)nc(-c3ccc(-n4c5ccccc5c5c4c4ccccc4n5-c4ccccc4)cc3)n2)cc1
In Cc1ccccc1
  emission maximum: 526 nm

## Cc1cc(O)c(C(=O)/C=C/c2ccccc2O)c(=O)o1
In CC#N
  emission maximum: 510 nm
In ClCCl
  emission maximum: 477 nm

## CN(C)c1ccc2c(C(=O)NCc3ccccc3)cc(C(=O)[O-])nc2c1
In CCO
  emission maximum: 603 nm

## c1ccccc1
In C1CCCCC1
  emission maximum: 287.36 nm

## CCCCCCCCCCCCOc1ccc(C2=C3C(=O)N(CC(OCC)OCC)C(c4ccc(OCCCCCCCCCCCC)c(OCCCCCCCCCCCC)c4)=C3C(=O)N2CC(OCC)OCC)cc1OCCCCCCCCCCCC
In ClC(Cl)Cl
  emission maximum: 541 nm

## NNC(=O)N1C(=O)c2cc(S(=O)(=O)[O-])cc3c(N)c(S(=O)(=O)[O-])cc(c23)C1=O
In O
  emission maximum: 535 nm

## C(=C/c1ccc(N(c2ccccc2)c2ccccc2)cc1)/c1ccc(N(c2ccccc2)c2ccccc2)cc1
In ClCCl
  emission maximum: 441 nm

## Cc1c2c(nc3ccccc13)-c1cc3c(cc1CC2)-c1nc2ccccc2c(C)c1CC3
In ClC(Cl)Cl
  emission maximum: 383 nm

## CB1C=Cc2ccc3ccccc3c2N1c1ccccc1
In C1CCCCC1
  emission maximum: 387 nm

## COCCOCCOCCOCC(COCCOCCOCCOC)Oc1cc(/C=C/c2ccc(/C=C(\C#N)c3ccccc3)cc2)c(OC(COCCOCCOCCOC)COCCOCCOCCOC)cc1/C=C/c1ccc(/C=C(\C#N)c2ccccc2)cc1
In ClCCl
  emission maximum: 539 nm

## F[B-]1(F)OC(c2cccc(Br)c2)=Cc2ccc3ccccc3[n+]21
In ClC(Cl)Cl
  emission maximum: 435 nm

## CCCCCCN(CCCCCC)c1ccc(C#Cc2ccc(C#N)cc2)cc1
In CC#N
  emission maximum: 530 nm
In CO
  emission maximum: 514 nm
In ClCCl
  emission maximum: 484 nm

## COc1cc(/C=C/C(=O)O)ccc1O
In O
  emission maximum: 413 nm

## COc1ccccc1-c1nc(-c2ccccc2)c2ccccn12
In C1CCCCC1
  emission maximum: 477 nm
In CC#N
  emission maximum: 479 nm
In CO
  emission maximum: 475 nm
In ClCCl
  emission maximum: 479 nm
In O
  emission maximum: 481 nm

## CN1C(=CC2=C([O-])C(=CC3=[N+](C)c4ccccc4C3(C)C)C2=NC#N)C(C)(C)c2ccccc21
In ClC(Cl)Cl
  emission maximum: 665 nm

## c1ccc2c(-c3cncnc3)c3ccccc3c(-c3cncnc3)c2c1
In CCO
  emission maximum: 417 nm
In ClCCl
  emission maximum: 417 nm

## Cc1nc(-c2ccccc2O)n2c1CCCC2
In ClCCl
  emission maximum: 452 nm

## Brc1ccc(N/C=C/C=[NH+]c2ccc(Br)cc2)cc1
In CS(C)=O
  emission maximum: 497 nm

## CCc1ccc(-n2c3ccccc3c3cc4c(cc32)c2ccccc2n4-c2ccc(CC)cc2)cc1
In ClC(Cl)Cl
  emission maximum: 415 nm

## CC1=C(c2ccccc2)C2=Cc3c(-c4ccccc4)c(C)c(C)n3[B-](F)(F)[N+]2=C1C
In CC#N
  emission maximum: 549 nm

## COc1ccc(C2=[N+]3C(=Nc4c(-c5cc(OC)c(OC)c(OC)c5)c(-c5ccc(C(C)(C)C)cc5)c(-c5ccc(OC)cc5)n4[B-]3(F)F)C(c3cc(OC)c(OC)c(OC)c3)=C2c2ccc(C(C)(C)C)cc2)cc1
In Cc1ccccc1
  emission maximum: 726 nm

## N#Cc1cc(C#N)c(-c2ccc(N(c3ccccc3)c3ccccc3)cc2)cc1-c1ccc(N(c2ccccc2)c2ccccc2)cc1
In Cc1ccccc1
  emission maximum: 477 nm

## CN(C)c1ccc(C(=O)Nc2ccc([N+](=O)[O-])cc2)cc1
In C1CCCCC1
  emission maximum: 360 nm
In C1CCOC1
  emission maximum: 400 nm
In CC#N
  emission maximum: 430 nm
In CCOCC
  emission maximum: 536 nm

## N#Cc1cc2ccc(C(F)(F)F)cc2c2c1ccc1ccccc12
In ClC(Cl)Cl
  emission maximum: 408 nm

## CCN(CC)c1ccc2cc(-c3ccc(-c4ccc5ccc6c(-c7ccc(-c8cc9ccc(N(CC)CC)cc9oc8=O)cc7)ccc7ccc4c5c76)cc3)c(=O)oc2c1
In ClC(Cl)Cl
  emission maximum: 475 nm

## CC(C)(C)NC(=O)c1cccc2ccc3c4ccccc4c4ccccc4c3c12
In ClCCl
  emission maximum: 403 nm

## CC(C)[Si](C#Cc1c2ccccc2c(C#C[Si](C(C)C)(C(C)C)C(C)C)c2nc3c(ccc4ccccc43)nc12)(C(C)C)C(C)C
In CCCCCC
  emission maximum: 553 nm

## CC(C)(C)c1ccc(C2=CC3=C(c4ccccc4)c4cc(-c5ccc(C(C)(C)C)cc5)c(-c5ccc(C(C)(C)C)cc5)n4[B-](F)(F)[N+]3=C2c2ccc(C(C)(C)C)cc2)cc1
In C1CCCCC1
  emission maximum: 643 nm
In C1CCOC1
  emission maximum: 649 nm
In CC#N
  emission maximum: 647 nm
In Cc1ccccc1
  emission maximum: 649 nm
In ClCCl
  emission maximum: 649 nm

## O=CC1=C(c2ccc(-c3cccs3)s2)CCC1
In C1CCOC1
  emission maximum: 479 nm
In CC#N
  emission maximum: 493 nm
In CCCCCC
  emission maximum: 456 nm
In CCO
  emission maximum: 514 nm
In OCCOCCO
  emission maximum: 527 nm
In c1ccncc1
  emission maximum: 494 nm

## C(=C\c1cnccn1)/c1ccc(N(c2ccccc2)c2ccccc2)cc1
In C1CCOC1
  emission maximum: 487 nm
In CC#N
  emission maximum: 535 nm
In CCCCCCC
  emission maximum: 433 nm
In CS(C)=O
  emission maximum: 537 nm
In ClCCl
  emission maximum: 543 nm

## BrC1=CN2C[n+]3cc(Br)cc(Br)c3N=C2C(Br)=C1
In CS(C)=O
  emission maximum: 494 nm

## COc1ccc(N(c2ccc(C=C(c3ccccc3)c3ccccc3)cc2)c2ccc(OC)cc2)cc1
In Cc1ccccc1
  emission maximum: 489 nm

## O=C([O-])c1cc2c(ccc3ccccc32)oc1=O
In O
  emission maximum: 428 nm

## OCc1cc2c(cc3ccc4cccc5ccc2c3c45)[nH]1
In CCOC(C)=O
  emission maximum: 404 nm

## CCNc1cc2oc(=O)cc(C(F)(F)F)c2cc1C
In CC#N
  emission maximum: 481 nm

## c1ccc(-c2ccc3c4ccc(-c5ccccc5)c5c(-c6ccccc6)ccc(c6cccc2c63)c54)cc1
In ClCCl
  emission maximum: 500 nm

## Cc1cc(-c2nnc(-c3c(C(C)C)cc(C(C)C)cc3C(C)C)o2)ccc1-n1c2ccccc2c2ccccc21
In CCO
  emission maximum: 440 nm
In Cc1ccccc1
  emission maximum: 375 nm

## Cc1ccc2c(c1)c1cc(C)ccc1n2-c1cccc(-n2c3ccc(C)cc3c3cc(C)ccc32)c1C#N
In Cc1ccccc1
  emission maximum: 417 nm
In O=P(c1ccccc1)(c1ccccc1)c1ccccc1Oc1ccccc1P(=O)(c1ccccc1)c1ccccc1
  emission maximum: 432 nm

## Cc1c(C)n2c(COC(=O)c3ccccc3O)c(C)c(=O)n2c1=O
In CCO
  emission maximum: 465 nm

## CCN1C(=CC2=C([O-])C(=Cc3[se]c4ccccc4[n+]3CC)C2=O)[Se]c2ccccc21
In CO
  emission maximum: 688 nm
In ClC(Cl)Cl
  emission maximum: 714 nm

## O=P(c1ccccc1)(c1ccccc1)c1cccc(-n2c(-c3ccccc3P(=O)(c3ccccc3)c3ccccc3)nc3ccccc32)c1
In ClCCl
  emission maximum: 384 nm

## CC1(C)c2ccccc2N(c2ccc(-c3ccc(C#N)c(C#N)n3)cc2)c2ccccc21
In Cc1ccccc1
  emission maximum: 562 nm
In N#Cc1ccc2c(c1)c1ccccc1n2-c1cccc(-n2c3ccccc3c3ccccc32)c1
  emission maximum: 550 nm

## CCOC(=O)c1[nH]c(C)c(/C=C/C2=[N+]3C(=C(c4cc(OC)cc(OC)c4)c4c(C)c(I)c(/C=C/c5c(C)[nH]c(C(=O)OCC)c5C)n4[B-]3(F)F)C(C)=C2I)c1C
In C1CCOC1
  emission maximum: 713 nm
In CS(C)=O
  emission maximum: 731 nm
In ClCCl
  emission maximum: 710 nm

## Nc1ccc2c(c1)C(=O)c1ccc(N)cc1C2=O
In CC#N
  emission maximum: 594 nm
In CC(C)O
  emission maximum: 616 nm
In CCO
  emission maximum: 616 nm
In CCOC(C)=O
  emission maximum: 547.6 nm
In CO
  emission maximum: 616 nm

## CCCN1C(=O)C(=CC=CC=C2Oc3ccccc3N2CCCS(=O)(=O)[O-])C(=O)N(CCC)C1=S
In C1COCCO1
  emission maximum: 584 nm
In CC(C)=O
  emission maximum: 580 nm
In CCCCO
  emission maximum: 583 nm
In CCCO
  emission maximum: 581 nm
In CCO
  emission maximum: 579 nm
In CO
  emission maximum: 577 nm
In ClC(Cl)Cl
  emission maximum: 589 nm
In O
  emission maximum: 573 nm

## COC(=O)C1=C(C(=O)OC)C2(c3ccccc3-c3c(Br)cc(Br)cc32)C2(/C=C/c3ccc(Cl)cc3)c3cc(OC)c(OC)cc3CCN12 (centres undefined)
In ClCCl
  emission maximum: 520 nm

## O=C(N/N=C/c1ccccc1O)c1cccc2ccccc12
In C1CCOC1
  emission maximum: 436 nm
In CC#N
  emission maximum: 376 nm
In CC(C)=O
  emission maximum: 428 nm
In CCO
  emission maximum: 429 nm
In CN(C)C=O
  emission maximum: 560 nm
In CS(C)=O
  emission maximum: 336 nm
In ClCCl
  emission maximum: 393 nm

## COc1ccc(-c2c3cc4ccccc4cc3c(C#Cc3ccccc3)c3cc4cc(C)sc4cc23)cc1
In ClCCl
  emission maximum: 620 nm

## COCCOCCOCCOCC(COCCOCCOCCOC)Oc1cc(/C=C/c2ccc(/C=C(\C#N)c3ccncc3)cc2)c(OC(COCCOCCOCCOC)COCCOCCOCCOC)cc1/C=C/c1ccc(/C=C(\C#N)c2ccncc2)cc1
In ClCCl
  emission maximum: 574 nm

## N#Cc1cc2sccc2c2c1ccc1ccccc12
In ClC(Cl)Cl
  emission maximum: 382 nm

## COc1ccc(C2=[N+]3C(=Nc4c(-c5ccccc5-c5ccc(C(C)(C)C)cc5)cc(-c5ccc(OC)cc5)n4[B-]3(F)F)c3c2c2cc(C(C)(C)C)ccc2c2ccccc32)cc1
In Cc1ccccc1
  emission maximum: 723 nm

## N#Cc1c(C#N)c2cc(F)ccc2c2ccc(F)cc12
In ClC(Cl)Cl
  emission maximum: 374 nm

## c1ccc2c(c1)-c1sc3ccccc3c1C21c2ccccc2-c2sc3ccccc3c21
In ClCCl
  emission maximum: 368 nm

## Cc1cc2ccccc2cc1C
In C1CCCCC1
  emission maximum: 339.21 nm

— the Deep4Chem optical property database
